Test results reported in US8541449B2, “Substituted isoquinolines and isoquinolinones as Rho kinase inhibitors” (Sanofi, priority 2008, dated 2013).

How the values were obtained:
Type in all cases: biochemical
[1] = biological target: T1, human recombinant ROCK II (Homo sapiens, UniProt O75116); assay: Determination of Rho kinase inhibition (Caliper peptide phosphorylation assay); conditions: 60 min at 32° C., negative decadal logarithm of the IC50
T1 construct: N-terminal His6-tagged recombinant human ROCK-II residues 11-552; His6 (N); purchased Millipore GmbH, Schwalbach, Germany
T1 sequence (O75116 11-552): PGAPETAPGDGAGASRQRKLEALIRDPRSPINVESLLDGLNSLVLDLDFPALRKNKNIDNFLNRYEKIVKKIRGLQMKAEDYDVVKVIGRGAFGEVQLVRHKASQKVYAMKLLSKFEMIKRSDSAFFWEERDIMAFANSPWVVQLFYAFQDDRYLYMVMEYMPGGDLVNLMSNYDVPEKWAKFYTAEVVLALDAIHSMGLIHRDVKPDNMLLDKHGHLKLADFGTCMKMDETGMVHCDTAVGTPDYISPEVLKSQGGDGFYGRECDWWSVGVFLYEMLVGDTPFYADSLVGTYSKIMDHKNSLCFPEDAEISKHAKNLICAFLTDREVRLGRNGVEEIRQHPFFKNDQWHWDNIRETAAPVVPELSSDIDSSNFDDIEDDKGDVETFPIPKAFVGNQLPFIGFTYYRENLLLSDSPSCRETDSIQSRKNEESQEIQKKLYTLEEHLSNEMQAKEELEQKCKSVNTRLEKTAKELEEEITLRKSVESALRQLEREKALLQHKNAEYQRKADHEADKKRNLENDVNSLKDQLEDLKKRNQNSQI
Experimental: Determination of Rho Kinase Inhibition
To measure Rho-kinase inhibition, IC50 values were determined according to the following protocol:
Active human recombinant ROCK II (N-terminal His6-tagged recombinant human ROCK-II residues 11-552) was purchased from Millipore GmbH, Schwalbach, Germany. The peptide substrate, Fluorescein-[…]-COOH, was obtained from JPT Peptide Technologies, Berlin, Germany. Adenosine-5′-triphosphate (ATP), bovine serum albumine (BSA), dimethylsulphoxide (DMSO), 4-(2-Hydroxyethyl)piperazine-1-ethanesulfonic acid (Hepes), Brij-35, dithiothreitol (DTT) and Pluronic F-68 were purchased from Sigma-Aldrich, Munich, Germany. Tris(hydroxymethyl)-aminomethane (Tris), magnesium chloride, NaOH, 1M HCl and EDTA were obtained from Merck Biosciences, Darmstadt, Germany. “Complete” protease inhibitor was from Roche Diagnostics, Mannheim, Germany.
(§1) Test compounds were diluted to the appropriate concentrations in buffer 1 (25 mM Tris-HCl, pH 7.4, 5 mM MgCl2, 2 mM DTT, 0.02% (w/v) BSA, 0.01% Pluronic F-68 and 3% DMSO). The ROCK II enzyme was diluted to a concentration of 100 ng/mL in buffer 2 (25 mM Tris-HCl, pH 7.4, 5 mM MgCl2, 2 mM DTT and 0.02% (w/v) BSA). The peptide substrate and ATP were diluted to concentrations of 3 μM and 120 μM, respectively, in the buffer 2. Two μl of the compound solution were mixed with 2 μl of the diluted enzyme in a 384-well small volume microtiter plate (Greiner, Bio-One, Frickenhausen, Germany), and the kinase reaction was initiated by addition of 2 μl of the solution containing peptide substrate and ATP. After 60 min incubation at 32° C., the reaction was stopped by addition of 20 μl of a solution containing 100 mM Hepes-NaOH, pH 7.4, 0.015% (v/v) Brij-35, 45 mM EDTA and 0.227% chip coating reagent 1 (Caliper Lifescience Inc, Hopkinton, Mass.). Phosphorylation of the substrate peptide was then detected on a Caliper 3000 instrument essentially as described by Pommereau et al (J. Biomol. Screening 9(5), 409-416, 2004). Separation conditions were as follows: Pressure −1.3 psi, upstream voltage −1562 V, downstream voltage −500 V, sample sip time 200 ms. Positive controls (buffer 1 instead of compound) and negative controls (buffer 1 instead of compound and buffer 2 instead of ROCK II) were run in parallel on each plate.
The following products/compounds were tested in said assay by using the respective form (salt or free base) obtained as in the examples described above and the following activities were measured

recombinant human PKA = biological target: T2, recombinant human PKA (Homo sapiens, UniProt P17612); assay: Determination of Protein Kinase A inhibition (Caliper peptide phosphorylation assay); conditions: recombinant human PKA versus ROCK II
T2 construct: Active recombinant human PKA (residues 1-351, N-terminal His-tag); His-tag (N); purchased Invitrogen, Karlsruhe, Germany
Experimental: (§2) Determination of Protein Kinase A and Protein Kinase G Inhibition
(§3) To measure PKA and PKG1-beta inhibition, IC50 values were determined according to the following protocol:
(§4) Active recombinant human PKG1-beta (full-length, with N-terminal His-tag) was purchased from Millipore GmbH, Schwalbach, Germany. Active recombinant human PKA (residues 1-351, N-terminal His-tag) was obtained from Invitrogen, Karlsruhe, Germany. The peptide substrate, Fluorescein-[…]-COOH, was obtained from JPT Peptide Technologies, Berlin, Germany. Adenosine-5′-triphosphate (ATP), bovine serum albumine (BSA), dimethylsulphoxide (DMSO), 4-(2-Hydroxyethyl)piperazine-1-ethanesulfonic acid (Hepes), Brij-35, dithiothreitol (DTT) and Pluronic F-68 were purchased from Sigma-Aldrich, Munich, Germany. Tris(hydroxymethyl)-aminomethane (Tris), magnesium chloride, NaOH, 1M HCl and EDTA were obtained from Merck Biosciences, Darmstadt, Germany. “Complete” protease inhibitor was from Roche Diagnostics, Mannheim, Germany.
as §1, with “PKG1-beta and PKA were” for “The ROCK II enzyme was”, “concentrations” for “a concentration”, “150 ng/ml and 30 ng/ml, respectively,” for “100 ng/mL”, “2.” for “2 (25 mM Tris-HCl, pH 7.4, 5 mM MgCl2, 2 mM DTT and 0.02% (w/v) BSA).”, “kinase solution)” for “ROCK II)”, “plate. The following products/compounds were tested in said assay by using the respective form (salt or free base) obtained as in the examples described above and the following activities were measured.” for “plate.”

[2] = biological target: T3, recombinant human PKG1-beta (Homo sapiens, UniProt Q13976); assay: Determination of Protein Kinase G inhibition (Caliper peptide phosphorylation assay); conditions: recombinant human PKG1-beta versus ROCK II
T3 construct: Active recombinant human PKG1-beta (full-length, with N-terminal His-tag); His-tag (N); purchased Millipore GmbH, Schwalbach, Germany
T3 sequence (Q13976 1-686 isoform Q13976-2): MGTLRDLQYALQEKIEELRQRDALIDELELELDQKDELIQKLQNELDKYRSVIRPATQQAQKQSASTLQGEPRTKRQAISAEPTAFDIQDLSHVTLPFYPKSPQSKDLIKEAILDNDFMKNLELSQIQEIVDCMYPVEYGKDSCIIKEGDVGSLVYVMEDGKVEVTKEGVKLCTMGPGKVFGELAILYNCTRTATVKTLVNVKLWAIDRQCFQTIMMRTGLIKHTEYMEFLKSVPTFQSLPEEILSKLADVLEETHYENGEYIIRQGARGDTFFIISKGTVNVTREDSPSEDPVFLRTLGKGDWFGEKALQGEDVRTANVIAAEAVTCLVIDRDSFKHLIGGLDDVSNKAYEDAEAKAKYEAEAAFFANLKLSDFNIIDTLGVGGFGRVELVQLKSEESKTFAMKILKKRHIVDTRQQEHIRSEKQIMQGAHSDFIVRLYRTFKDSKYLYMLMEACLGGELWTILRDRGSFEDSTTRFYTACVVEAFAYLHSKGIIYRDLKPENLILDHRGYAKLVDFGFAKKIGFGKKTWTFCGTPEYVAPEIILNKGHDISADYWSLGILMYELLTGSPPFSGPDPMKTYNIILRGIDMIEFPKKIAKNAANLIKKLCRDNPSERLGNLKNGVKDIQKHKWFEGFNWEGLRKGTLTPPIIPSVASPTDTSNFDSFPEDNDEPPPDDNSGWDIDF
Experimental: as §2, §3, §4
as §1, with “PKG1-beta and PKA were” for “The ROCK II enzyme was”, “concentrations” for “a concentration”, “150 ng/ml and 30 ng/ml, respectively,” for “100 ng/mL”, “2.” for “2 (25 mM Tris-HCl, pH 7.4, 5 mM MgCl2, 2 mM DTT and 0.02% (w/v) BSA).”, “kinase solution)” for “ROCK II)”, “plate. The following products/compounds were tested in said assay by using the respective form (salt or free base) obtained as in the examples described above and the following activities were measured.” for “plate.”

pIC50 [1] | Selectivity against PKA (recombinant human PKA) | Selectivity against PKG [2] | SMILES | other results
+++++ (6.0≦pIC50<7.0) | – | – | COCCC(N)[C@]1(c2ccc(F)cc2)CC[C@H](Oc2cc3cc[nH]c(=O)c3cc2Cl)CC1 (stereo partly drawn) [Example 115, cis-6-[4-(1-Amino-3-methoxy-propyl)-4-(4-fluoro-phenyl)-cyclohexyloxy]-7-chloro-2H-isoquinolin-1-one] | –
– | >300 | >10 | COc1ccc(C(C)(N)C2CCC(Oc3cc4cc[nH]c(=O)c4cc3Cl)CC2)cc1 (stereo not shown) [Example 117, 6-{4-[1-Amino-1-(4-methoxy-phenyl)-ethyl]-cyclohexyloxy}-7-chloro-2H-isoquinolin-1-one] | –
– | >100 | >10 | CCCC(C)(N)C1CCC(Oc2cc3cc[nH]c(=O)c3cc2Cl)CC1 (single isomer, unassigned) [Example 124, 6-{4-[1-Amino-1-methyl-n-butyl]-cyclohexyloxy}-7-chloro-2H-isoquinolin-1-one] | –
– | >100 | >10 | NC(C1CCC(Oc2cc3cc[nH]c(=O)c3cc2Cl)CC1)C1CC1 (single isomer, unassigned) [Example 132, 6-[4-(Amino-cyclopropyl-methyl)-cyclohexyloxy]-7-chloro-2H-isoquinolin-1-one] | –

The remaining lines, values behind:

SMILES | pIC50 [1] | Selectivity against PKA (recombinant human PKA) | Selectivity against PKG [2] | other results
CCC(N)[C@]1(c2cc(F)cc(F)c2)CC[C@H](Oc2cc3cc[nH]c(=O)c3cc2F)CC1 (stereo partly shown) [Example 66] | +++++ (6.0≦pIC50<7.0) | >10 | >10 | –
CCC(N)[C@]1(c2ccccc2)CC[C@H](Oc2cc3ccncc3cc2Cl)CC1 (stereo partly drawn) [Example 89, cis-1-[4-(7-Chloro-iso-quinolin-6-yloxy)-1-phenyl-cyclohexyl]-propylamine] | +++++ (6.0≦pIC50<7.0) | – | – | –
CC(N)(c1ccccc1)C1CCC(Oc2cc3cc[nH]c(=O)c3cc2Cl)CC1 (stereo not shown) [Example 34, 6-[4-(1-Amino-1-phenyl-ethyl)-cyclohexyloxy]-7-chloro-2H-isoquinolin-1-one] | – | >300 | >10 | –
CCC(N)[C@]1(c2ccccc2)CC[C@H](Oc2ccc3cnccc3c2Cl)CC1 (stereo partly drawn) [Example 92, cis-1-[4-(5-Chloro-isoquinolin-6-yloxy)-1-phenyl-cyclohexyl]-propylamine] | +++++ (6.0≦pIC50<7.0) | – | – | –
CCC(N)[C@]1(c2ccccc2)CC[C@H](Oc2cc3ccnc(N)c3cc2Cl)CC1 (stereo partly drawn) [Example 111, cis-6-[4-(1-Amino-propyl)-4-phenyl-cyclohexyloxy]-7-chloro-isoquinolin-1-ylamine] | ++++++ (7.0≦pIC50<8.0) | – | – | –
CCC(N)[C@]1(c2ccccc2)CC[C@H](Oc2c(C)cc3cnccc3c2C)CC1 (stereo partly drawn) [Example 90, cis-1-[4-(5,7-Dimethyl-isoquinolin-6-yloxy)-1-phenyl-cyclohexyl]-propylamine] | +++++ (6.0≦pIC50<7.0) | – | – | –
CCC(N)[C@]1(c2ccc(C)c(OC)c2)CC[C@H](Oc2cc3cc[nH]c(=O)c3cc2Cl)CC1 (stereo partly drawn) [Example 64, cis-6-[4-(1-Amino-propyl)-4-(3-methoxy-4-methyl-phenyl)-cyclohexyloxy]-7-chloro-2H-isoquinolin-1-one] | – | >1000 | >100 | –
CC(N)(C1CCCC1)C1CCC(Oc2cc3cc[nH]c(=O)c3cc2Cl)CC1 (single isomer, unassigned) [Example 118, 6-{4-[1-Amino-1-cyclopentyl-ethyl]-cyclohexyl-oxy}-7-chloro-2H-isoquinolin-1-one] | – | – | – | IC50 [1]: 100 to 1000 nM
CCC(N)(CC)C1CCC(Oc2cc3cc[nH]c(=O)c3cc2Cl)CC1 (single isomer, unassigned) [Example 119, 6-{4-[1-Amino-1-ethyl-propyl]-cyclohexyloxy}-7-chloro-2H-isoquinolin-1-one] | – | – | – | IC50 [1]: 100 to 1000 nM
CCC(N)[C@]1(c2ccc(F)c(F)c2)CC[C@H](Oc2cc3cc[nH]c(=O)c3cc2C)CC1 (stereo partly drawn) [Example 65, cis-6-[4-(1-Amino-propyl)-4-(3,4-difluoro-phenyl)-cyclohexyloxy]-7-methyl-2H-isoquinolin-1-one] | +++++ (6.0≦pIC50<7.0) | – | – | –
NC(c1ccccc1)C1CCC(Oc2cc3cc[nH]c(=O)c3cc2Cl)CC1 (single isomer, unassigned) [Example 40, 6-[4-(Amino-phenyl-methyl)-cyclohexyloxy]-7-chloro-2H-isoquinolin-1-one] | – | – | – | IC50 [1]: 100 to 1000 nM
CCC(N)[C@]1(c2ccccc2)CC[C@H](Oc2cc3ccncc3cc2Br)CC1 (stereo partly drawn) [Example 94, cis-1-[4-(7-Bromo-isoquinolin-6-yloxy)-1-phenyl-cyclohexyl]-propylamine] | +++++ (6.0≦pIC50<7.0) | – | – | –
CCC(N)[C@]1(c2ccccc2)C[C@H]2C[C@@H]1CC2Oc1cc2cc[nH]c(=O)c2cc1Cl (stereo partly drawn) [Example 101, 6-[(1R,4R,5R)-5-(1-Amino-propyl)-5-phenyl-bicyclo[2.2.1]hept-2-yloxy]-7-chloro-2H-isoquinolin-1-one] | +++++ (6.0≦pIC50<7.0) | – | – | –
CCC(N)[C@]1(c2ccc(F)c(F)c2)CC[C@H](Oc2c(F)cc3c(=O)[nH]ccc3c2C)CC1 (stereo partly drawn) [Example 67, cis-6-[4-(1-Amino-propyl)-4-(3,4-difluoro-phenyl)-cyclohexyloxy]-7-fluoro-5-methyl-2H-isoquinolin-1-one] | +++++ (6.0≦pIC50<7.0) | – | – | –
